This is an account of results in US20250179027A1, “CYCLOALKYL OR HETEROCYCLYL SUBSTITUTED HETEROARYL COMPOUND, AND COMPOSITION AND USE THEREOF” (Shenzhen TargetRx, Inc., priority 2022, published 2025).

For one test, the target named is T1, EGFR (Homo sapiens, UniProt P00533).
T1 construct: purchased Carna 08-115
Kind of test: HTRF kinase activity inhibition assay, EGFR. It counts as biochemical. The note with it: HTRF TK kit. The source says: (§1) In this assay, the HTRF TK Kit (Catalog No. 62TKOPEC) provided by Cisbio was used to detect the inhibitory activity of compounds on BTK kinase and BTK C481S kinase and the selectivity of compounds relative to EGFR, ITK and TEC kinases.
(§2) Reagents and consumables: BTK kinase (Invitrogen, Catalog No. PV3587), BTK C481S (Carna, Product No. 08-547), ITK (Carna, Product No. 08-181), EGFR (Carna, Product No. 08-115), TEC (Carna, Product No. 08-182), HTRF-TK kit (Cisbio, Product No. 62TKOPEC), MgCl2 (Sigma, Product No. M1028), MnCl2 (Sigma, Product No. M1787), DTT (Sigma, Product No. D0632), ATP (Sigma, Product No. A7699-1 g), DMSO (Sigma, Product No. D2650), 384-well plate (PE, Product No. 6008280).
(§3) The entire operation steps were carried out on ice, and the total reaction volume was 10 μL. The compound (4 μL), substrate and ATP (4 μL), kinase (2 μL) were added in sequence to a 384-well plate, and shaked for 30 seconds. After an appropriate time at room temperature, the detection reagent was added. After 1 hour at room temperature, the plate was detected with a microplate reader. The specific steps were as follows: • a) 1× kinase buffer solution required for kinase detection was calculated according to the amount of the detection compound, and prepared as needed; • b) compounds with 2.5×working concentration were prepared, the 100 times gradient concentration solution of compounds was diluted by 4 μL to the desired concentration, mixed well, and added to each well at 4 μL per well; • c) 5×working concentration of substrate and ATP were prepared, mixed in a ratio of 1:1 before adding to a 384-well plate, and added to each well at 4 μL per well; • d) 5×working concentration of kinase was prepared, and 2 μL was added to each well; • e) the plate was shaked on a microplate oscillator for 30 seconds, sealed with a sealing membrane, and reacted at room temperature for an appropriate time; • f) 4×working concentrations of streptavidin XL-665 and TK antibody-cryptate compound were prepared, mixed in a ratio of 1:1 before adding to a 384-well plate, and added to each well at 10 μL per well; • g) the plate was read after reacting at room temperature for 1 hour; • h) the wells with only substrate, ATP and 1% DMSO added but no kinase were blank control wells, and the wells with only substrate, ATP, 1% DMSO and kinase were positive control wells.
(§4) Readings: The values of 620 nm (cryptate) and 665 nm (XL665) were read with a BioTek Synerg Neo2 microplate reader, the ratio of 665/620 per well was calculated, and the data were exported. Data analysis: IC50 was calculated using GraphPad Prism 7.0 software. The following nonlinear fitting formula was used to obtain the IC50 (half inhibitory concentration) of compounds:
(§5) [formula] • X: Compound concentration log value • Y: Inhibition rate (% inhibition)
(§6) The kinase inhibition rate (% inhibition rate) was calculated as: […]
(In TR-FRET formats the signal depends on donor and acceptor labels being close together.)

In a further test the target is T2, BTK kinase (Homo sapiens, UniProt Q06187).
T2 construct: purchased Invitrogen PV3587
Kind of test: HTRF kinase activity inhibition assay, BTK. It counts as biochemical. The note with it: HTRF TK kit.
Source text: as §1, §2, §3, §4, §5, §6

For a further test, the target named is T3, ITK (Homo sapiens, UniProt Q08881).
T3 construct: purchased Carna 08-181
T3 sequence (Q08881 1-620): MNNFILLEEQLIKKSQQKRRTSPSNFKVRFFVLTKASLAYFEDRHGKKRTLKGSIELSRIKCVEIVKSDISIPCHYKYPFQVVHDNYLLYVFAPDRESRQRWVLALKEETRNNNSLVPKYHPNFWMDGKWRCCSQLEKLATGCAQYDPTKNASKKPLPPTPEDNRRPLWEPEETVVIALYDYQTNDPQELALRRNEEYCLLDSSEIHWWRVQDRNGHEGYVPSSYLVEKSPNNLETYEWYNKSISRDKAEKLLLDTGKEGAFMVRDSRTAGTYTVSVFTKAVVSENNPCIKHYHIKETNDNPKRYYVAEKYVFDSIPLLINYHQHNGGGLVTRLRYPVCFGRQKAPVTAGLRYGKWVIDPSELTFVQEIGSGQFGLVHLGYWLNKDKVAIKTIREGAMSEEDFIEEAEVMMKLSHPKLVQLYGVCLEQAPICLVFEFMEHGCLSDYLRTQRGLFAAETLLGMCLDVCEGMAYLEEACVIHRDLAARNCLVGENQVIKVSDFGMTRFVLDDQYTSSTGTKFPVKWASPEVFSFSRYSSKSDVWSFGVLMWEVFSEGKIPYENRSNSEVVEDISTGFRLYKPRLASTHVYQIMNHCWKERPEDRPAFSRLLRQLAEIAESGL
In words: HTRF kinase activity inhibition assay, ITK. It counts as biochemical. The note with it: HTRF TK kit.
Source text: as §1, §2, §3, §4, §5, §6

Test [1] concerns the target T4, phosphorylated BTK Y223 in NIH/3T3 BTK WT cells (Homo sapiens, UniProt Q06187).
T4 construct: expressed in transfected cells; host or cells: NIH/3T3 (mouse fibroblasts) engineered to express BTK WT
Kind of test: Phosphor-BTK(Y223) assay, NIH/3T3 BTK WT cells. The class given is cell-based. Conditions: phosphorylated BTK Y223, NIH/3T3 BTK WT cells; read-out: NIH/3T3 BTK-WT pBTK IC50. The procedure: The purpose of this assay is to simply, quickly and directly detect the endogenous level of BTK in cells. The specific assay steps are as follows: Day 1: NIH/3T3 BTK WT cells (7.5 k/well) and NIH/3T3 BTK C481S cells (10 k/well) were plated in 96-well plates, respectively, and cultured overnight at 37° C. and 5% CO2.
• 1. A 3-fold final concentration gradient dilution of the compound was prepared, and 50 μL was added to 100 μL of cell culture; 0.5% DMSO was used as a positive control for cell growth. • 2. The plate was incubated at 37° C., 5% CO2 for 0.5 h. • 3. Na3VO4 with a final concentration of 1 mM was added, and incubated at 37° C. and 5% CO2 for 2 hours. • 4. During the incubation, the following reagents were prepared: 1× added lysis buffer: 3 vol ddH2O+1 vol 4× lysis buffer+100× blocking reagent. p-BTK (Y223) cryptate-antibody and p-BTK (Y223) d2-antibody working solutions: 1 volume of each cryopreserved antibody (stored at −20° C.) was added to 19 times volumes of assay buffer (stored at 4° C.). • 5. After the incubation, the medium was removed and 50 μL of 1× added lysis buffer was added; The mixture was centrifuged at 500 rpm for 30 min at room temperature. • 6. The lysate was mixed well and 16 μL was transferred to a 384-well plate; 1× added lysis buffer was used as a blank control. • 7. 4 μL of pre-mixed working solutions of the two antibodies (cryptate Ab:d2 Ab=1:1) were added and the plate was sealed. • 8. The plate was incubated overnight at room temperature.
Biotek cytation3.0 microplate reader was used to read the plate at 665 nm and 620 nm, and the ratio of 665/620 nm per well was calculated.
IC50 was calculated using GraphPad Prism 7.0 software.
The following nonlinear fitting formula was used to obtain the phosphorylated BTK Y223 IC50 (half phosphorylation inhibitory concentration) of the compounds:
as §5
The formula for calculating cell phosphorylation inhibition rate (% inhibition rate) was: […]

For a further test, the target named is T5, TEC (Homo sapiens, UniProt P42680).
T5 construct: purchased Carna 08-182
T5 sequence (P42680 1-631): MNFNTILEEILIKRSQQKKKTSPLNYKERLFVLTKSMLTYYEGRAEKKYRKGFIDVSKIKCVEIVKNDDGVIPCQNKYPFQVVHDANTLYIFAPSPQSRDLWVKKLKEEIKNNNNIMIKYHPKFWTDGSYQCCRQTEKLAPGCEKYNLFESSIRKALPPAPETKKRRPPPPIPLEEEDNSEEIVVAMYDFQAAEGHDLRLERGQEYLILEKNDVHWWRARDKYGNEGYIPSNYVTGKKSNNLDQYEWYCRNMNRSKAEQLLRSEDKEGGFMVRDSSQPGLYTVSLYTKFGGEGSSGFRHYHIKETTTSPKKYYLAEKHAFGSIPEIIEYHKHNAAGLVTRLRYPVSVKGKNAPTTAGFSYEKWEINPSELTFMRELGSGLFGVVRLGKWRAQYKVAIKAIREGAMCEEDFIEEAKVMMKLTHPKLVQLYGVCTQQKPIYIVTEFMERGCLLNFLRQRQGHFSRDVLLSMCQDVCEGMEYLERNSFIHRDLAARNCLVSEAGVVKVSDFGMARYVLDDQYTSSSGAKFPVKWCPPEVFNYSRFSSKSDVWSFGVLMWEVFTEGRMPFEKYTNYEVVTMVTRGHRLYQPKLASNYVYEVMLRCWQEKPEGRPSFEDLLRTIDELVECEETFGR
In words: HTRF kinase activity inhibition assay, TEC. The class given is biochemical. The note with it: HTRF TK kit.
Source text: as §1, §2, §3, §4, §5, §6

T1 sequence (P00533 669-1210 limits assumed): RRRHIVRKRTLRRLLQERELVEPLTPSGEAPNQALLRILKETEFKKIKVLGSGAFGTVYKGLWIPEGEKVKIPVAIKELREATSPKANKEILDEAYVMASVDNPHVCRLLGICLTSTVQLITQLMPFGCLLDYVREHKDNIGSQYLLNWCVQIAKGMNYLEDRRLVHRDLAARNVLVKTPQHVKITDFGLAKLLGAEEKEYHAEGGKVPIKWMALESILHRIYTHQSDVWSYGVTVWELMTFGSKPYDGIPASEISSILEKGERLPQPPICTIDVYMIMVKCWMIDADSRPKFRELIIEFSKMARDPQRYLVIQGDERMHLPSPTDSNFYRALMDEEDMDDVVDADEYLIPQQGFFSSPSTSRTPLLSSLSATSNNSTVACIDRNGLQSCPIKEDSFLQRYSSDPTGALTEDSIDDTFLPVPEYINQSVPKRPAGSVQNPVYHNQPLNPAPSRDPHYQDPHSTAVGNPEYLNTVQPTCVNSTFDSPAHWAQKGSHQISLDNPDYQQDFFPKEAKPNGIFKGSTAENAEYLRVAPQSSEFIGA
T2 sequence (Q06187 whole entry): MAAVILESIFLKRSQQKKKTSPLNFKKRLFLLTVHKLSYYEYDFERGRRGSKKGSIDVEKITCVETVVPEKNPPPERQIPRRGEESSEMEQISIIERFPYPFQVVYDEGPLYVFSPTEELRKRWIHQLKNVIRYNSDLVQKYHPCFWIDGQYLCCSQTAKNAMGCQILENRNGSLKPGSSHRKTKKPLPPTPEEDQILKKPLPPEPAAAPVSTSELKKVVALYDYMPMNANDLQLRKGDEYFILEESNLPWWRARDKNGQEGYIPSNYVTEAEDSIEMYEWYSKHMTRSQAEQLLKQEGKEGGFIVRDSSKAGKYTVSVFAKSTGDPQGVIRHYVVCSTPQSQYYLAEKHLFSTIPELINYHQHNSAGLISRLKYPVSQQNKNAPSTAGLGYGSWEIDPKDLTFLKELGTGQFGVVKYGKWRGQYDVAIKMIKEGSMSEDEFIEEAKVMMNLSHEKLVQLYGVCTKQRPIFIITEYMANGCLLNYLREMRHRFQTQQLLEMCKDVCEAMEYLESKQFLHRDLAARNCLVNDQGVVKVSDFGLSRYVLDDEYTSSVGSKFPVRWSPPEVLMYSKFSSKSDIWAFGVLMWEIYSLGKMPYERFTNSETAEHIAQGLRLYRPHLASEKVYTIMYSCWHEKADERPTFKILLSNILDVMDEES
T4 sequence (Q06187 whole entry): as above

Turning to `COc1ccc(F)cc1C(=O)NCc1ccc(-c2nn(C3CCC(O)C3)c3ncnc(N)c23)cc1` (single isomer, unassigned) [Example 36, N-(4-(4-amino-1-(3-hydroxycyclopentanyl)-1H-pyrazolo[3,4-d]pyrimidin-3-yl)benzyl)-5-fluoro-2-methoxybenzamide], the IC50 was 1000 to 10000 nM on EGFR; ≤ 10 nM at BTK kinase; > 10000 nM on ITK; ≤ 25 nM in test [1]; 100 to 1000 nM at TEC.

As to `COc1ccc(F)cc1C(=O)NCc1ccc(-c2nn(C3CCC(O)C3)c3ncnc(N)c23)cc1` (single isomer, unassigned) [Example 33, N-(4-(4-amino-1-(3-hydroxycyclopentanyl)-1H-pyrazolo[3,4-d]pyrimidin-3-yl)benzyl)-5-fluoro-2-methoxybenzamide], the IC50 is 50 to 100 nM at EGFR; ≤ 10 nM at BTK kinase; > 10000 nM on ITK; ≤ 25 nM in test [1]; 100 to 1000 nM at TEC.

In the case of `COc1ccc(F)cc1C(=O)NCc1ccc(-c2nn(C3CCC(O)C3)c3ncnc(N)c23)cc1` (single isomer, unassigned) [Example 34, N-(4-(4-amino-1-(3-hydroxycyclopentanyl)-1H-pyrazolo[3,4-d]pyrimidin-3-yl)benzyl)-5-fluoro-2-methoxybenzamide], the IC50 on EGFR was 50 to 100 nM; at BTK kinase it was ≤ 10 nM; on ITK, > 10000 nM; in test [1] it was ≤ 25 nM; on TEC, 100 to 1000 nM.

`COc1ccc(F)cc1C(=O)NCc1ccc(-c2nn(C3CCC(O)C3)c3ncnc(N)c23)cc1` (single isomer, unassigned) [Example 35, N-(4-(4-amino-1-(3-hydroxycyclopentanyl)-1H-pyrazolo[3,4-d]pyrimidin-3-yl)benzyl)-5-fluoro-2-methoxybenzamide]: the IC50 on EGFR was 50 to 100 nM; at BTK kinase, ≤ 10 nM; at ITK, > 10000 nM; in test [1] it was ≤ 25 nM; on TEC, 100 to 1000 nM.
